According to patent publication EP0048954A2, “Beta-lactam compounds, process for the preparation thereof and intermediate products for the preparation thereof” (SAGAMI CHEMICAL RESEARCH CENTER, priority 1980, dated 1982):
Values after ≈ are worked out from the molar mass of the structure shown. Structures can show the parent of a compound that is named as a salt. Where two headings read alike, the source gives them in different places.

Key:
Assay in all cases: Antibacterial activity, minimum inhibition concentration (method of The Chemotherapy Association, Japan)
Format in all cases: cell-based
[1] = tested on: Pseudomonas aeruginosa NCTC-10490; conditions: Pseudomonas aeruginosa
In short: (§1)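 Lowest concentration inhibiting growth, in µg/mℓ; protocol per the Japan Chemotherapy Association MIC standard.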

Escherichia coli NIHJ = conditions: Escherichia coli, read-out: minimum inhibition concentration
In short: as §1

[2] = tested on: Enterobactor cloacae NCTC-9394; conditions: read-out: minimum inhibition concentration
In short: as §1

[3] = tested on: Staphylococcus aureus 6538-P
In short: as §1

[4] = tested on: Proteus inconstans NIH-118; conditions: Providencia alcalifaciens
In short: as §1

Proteus vulgaris OX-19 = conditions: Proteus vulgaris
Text: (§2) The abbreviations A to P will be used in the following Tables 2 to 8.
(§3) Test results are shown in terms of the minimum inhibition concentration (µg/mℓ.) in the following Tables 2 to 8.

Proteus rettgeri NIH-96 = conditions: Providencia rettgeri
Text: as §2, §3

[5] = tested on: Serratia marcescens IFO-3736; conditions: Serratia marcescens
In short: as §1

Serratia marcescens 1023 = tested on: Serratia marcescens 1023
In short: as §1

Klebsiella pneumoniae = conditions: Klebsiella pneumoniae
In short: as §1

Proteus morgani Kono = conditions: read-out: minimum inhibition concentration
In short: as §1

[6] = tested on: Proteus mirabillis B-30-2 IFO-3849
In short: as §1

[7] = tested on: Citrobactor freundii NIH-10018 -68; conditions: read-out: minimum inhibition concentration
In short: as §1

[8] = tested on: Bacillus subtilis ATCC 6633; conditions: Bacillus subtilis
In short: as §1

[9] = tested on: Salmonella typhimurium 3173; conditions: Salmonella enterica, TYPHIMURIUM
In short: as §1

Escherichia coli NIHJC-2 = conditions: Escherichia coli
In short: as §1

[10] = NCTC10490, strain M: Pseudomonas aeruginosa NCTC-10490, read-out: minimum inhibition concentration
[11] = strain K: Escherichia coli NIHJ
[12] = strain N: Enterobactor cloacae NCTC-9394
[13] = strain A: Staphylococcus aureus 6538-P, read-out: minimum inhibition concentration
[14] = NIH118, strain P: Proteus inconstans NIH-118, read-out: minimum inhibition concentration
[15] = OX19, strain H: Proteus vulgaris OX-19, read-out: minimum inhibition concentration
[16] = NIH96, strain I: Proteus rettgeri NIH-96, read-out: minimum inhibition concentration
[17] = NCTC10490, read-out: minimum inhibition concentration
[18] = Staphylococcus aureus, 6538P, read-out: minimum inhibition concentration, strain A: Staphylococcus aureus 6538-P
[19] = OX19, read-out: minimum inhibition concentration, strain H: Proteus vulgaris OX-19
[20] = NIH96, read-out: minimum inhibition concentration, strain I: Proteus rettgeri NIH-96
[21] = IFO3736, strain F: Serratia marcescens IFO-3736, read-out: minimum inhibition concentration
[22] = Serratia marcescens, 1023, strain E: Serratia marcescens 1023, read-out: minimum inhibition concentration
[23] = strain C: Klebsiella pneumoniae, read-out: minimum inhibition concentration
[24] = strain G: Proteus mirabillis B-30-2 IFO-3849, read-out: minimum inhibition concentration
[25] = strain O: Citrobactor freundii NIH-10018 -68
[26] = ATCC6633, strain B: Bacillus subtilis ATCC 6633, read-out: minimum inhibition concentration
[27] = strain D: Salmonella typhimurium 3173, read-out: minimum inhibition concentration
[28] = NIHJC2, strain L: Escherichia coli NIHJC-2, read-out: minimum inhibition concentration

Compound	MIC [1, 10] [µg/mL]	MIC (Escherichia coli NIHJ; [11]) [µg/mL]	MIC [2, 12] [µg/mL]	MIC [3, 13] [µg/mL]	MIC [4, 14] [µg/mL]	MIC (Proteus vulgaris OX-19; [15]) [µg/mL]	MIC (Proteus rettgeri NIH-96; [16]) [µg/mL]	MIC [5, 21] [µg/mL]	MIC (Serratia marcescens 1023; [22]) [µg/mL]	MIC (Klebsiella pneumoniae; [23]) [µg/mL]	MIC (Proteus morgani Kono; strain J: Proteus morgani Kono) [µg/mL]	MIC [6, 24] [µg/mL]	MIC [7, 25] [µg/mL]	MIC [8, 26] [µg/mL]	MIC [9, 27] [µg/mL]	MIC (Escherichia coli NIHJC-2; [28]) [µg/mL]	further results
Cn1nnnc1SCC1=C(C(=O)O)N2C(=O)C(NC(=O)C(=C(Cl)Cl)c3cccs3)C2SC1 (stereo not drawn) [Compound 39, 7-[2-dichloromethylene-2-(2-thienyl)acetamido]-3-(l-methyl-lH-tetrazol-5-yl)thiomethyl-3-cephem-4-carboxylic acid]	6.25 (≈ 11.7 µM)	0.39 (≈ 0.731 µM)	12.5 (≈ 23.4 µM)	0.2 (≈ 0.375 µM)	3.12 (≈ 5.86 µM)	50 (≈ 93.7 µM)	0.05 (≈ 0.0937 µM)	–	–	–	–	–	–	–	–	–	–
CC(=O)OCC1=C(C(=O)O)N2C(=O)C(NC(=O)C(=C(Cl)Cl)c3cccs3)[C@H]2SC1 (stereo partly shown) [Compound 41, 7-[2-dichloromethylene-2-(2-thienyl)acetamido]-3-acetoxymethyl-3-cephem-4-carboxylic acid]	25 (≈ 52.4 µM)	0.39 (≈ 0.817 µM)	50 (≈ 105 µM)	0.2 (≈ 0.419 µM)	1.56 (≈ 3.27 µM)	0.39 (≈ 0.817 µM)	50 (≈ 105 µM)	–	–	–	–	–	–	–	–	–	–
CC(=O)OCC1=C(C(=O)[O-])N2C(=O)C(NC(=O)C(=CCl)c3csc(N)n3)[C@H]2SC1.[Na+] (stereo partly shown) [Compound 20, 7-[2-chloromethylene-2-(2-aminothiazol-4-yl)acetamido]-3-acetoxymethyl-3-cephem-4-carboxylic acid sodium salt]	–	–	–	–	–	–	–	–	–	–	–	–	–	–	–	–	MIC [1, 17]: 6.25 µg/mL; MIC ([5]; IFO3736, read-out: minimum inhibition concentration): 6.25 µg/mL; MIC (Escherichia coli NIHJ): 0.05 µg/mL; MIC [2]: 0.78 µg/mL; MIC [3, 18]: 1.56 µg/mL; MIC (Serratia marcescens 1023; Serratia marcescens, 1023, read-out: minimum inhibition concentration, strain E: Serratia marcescens 1023): 12.5 µg/mL; MIC (Klebsiella pneumoniae; read-out: minimum inhibition concentration, strain C: Klebsiella pneumoniae): 1.56 µg/mL; MIC (Proteus morgani Kono): 1.56 µg/mL; MIC ([6]; read-out: minimum inhibition concentration, strain G: Proteus mirabillis B-30-2 IFO-3849): 1.56 µg/mL; MIC [7]: 1.56 µg/mL; MIC ([8]; ATCC6633, read-out: minimum inhibition concentration, strain B: Bacillus subtilis ATCC 6633): 6.25 µg/mL; MIC ([9]; read-out: minimum inhibition concentration, strain D: Salmonella typhimurium 3173): 3.12 µg/mL; MIC (Escherichia coli NIHJC-2; NIHJC2, read-out: minimum inhibition concentration): 3.12 µg/mL; MIC (Proteus vulgaris OX-19; [19]): 0.2 µg/mL; MIC (Proteus rettgeri NIH-96; [20]): 0.025 µg/mL
CC(=O)OCC1=C(C(=O)O)N2C(=O)C(NC(=O)C(=C(Cl)Cl)c3ccsc3)[C@H]2SC1 (stereo partly shown) [Compound 40, 7-[2-dichloromethylene-2-(3-thienyl)acetamido]-3-acetoxymethyl-3-cephem-4-carboxylic acid]	25 (≈ 52.4 µM)	1.56 (≈ 3.27 µM)	100 (≈ 209 µM)	0.39 (≈ 0.817 µM)	25 (≈ 52.4 µM)	25 (≈ 52.4 µM)	0.39 (≈ 0.817 µM)	–	–	–	–	–	–	–	–	–	–
CC(=O)OCC1=C(C(=O)O)N2C(=O)C(NC(=O)Cc3cccs3)C2SC1 (stereo not shown) [Cephalo-thin Na salt, reference compound]	–	25	> 100	–	–	–	–	–	–	–	–	–	–	–	–	–	MIC [1, 17]: > 100 µg/mL; MIC [3, 18]: 0.1 µg/mL; MIC ([4]; NIH118, read-out: minimum inhibition concentration): > 100 µg/mL; MIC (Proteus vulgaris OX-19; [19]): > 100 µg/mL; MIC (Proteus rettgeri NIH-96; [20]): > 100 µg/mL
CC(=O)OCC1=C(C(=O)O)N2C(=O)C(NC(=O)C(=C(Cl)Cl)c3csc(NC(=O)OC(C)(C)C)n3)C2SC1 (stereo not shown) [5-(1), 7-[2-dichloromethylene-2-(2-tert-butoxycarbonyl-aminothiazol-4-yl)acetamido]-3-acetoxymethyl-3-cephem-4-carboxylic acid]	12.5 (≈ 21.1 µM)	0.1 (≈ 0.169 µM)	12.5 (≈ 21.1 µM)	1.56 (≈ 2.63 µM)	–	0.39 (≈ 0.657 µM)	< 0.025	12.5 (≈ 21.1 µM)	25 (≈ 42.1 µM)	12.5 (≈ 21.1 µM)	12.5 (≈ 21.1 µM)	12.5 (≈ 21.1 µM)	25 (≈ 42.1 µM)	25 (≈ 42.1 µM)	12.5 (≈ 21.1 µM)	25 (≈ 42.1 µM)	–
CC(=O)OCC1=C(C(=O)O)N2C(=O)C(NC(=O)C(=C(Cl)Cl)c3ccc(Cl)cc3)[C@H]2SC1 (stereo partly shown) [Compound 29, 7-[2-dichloromethylene-2-(4-chlorophenyl)acetamido]-3-acetoxymethyl-3-cephem-4-carboxylic acid]	> 100	100 (≈ 198 µM)	> 100	> 100	–	> 100	3.12 (≈ 6.18 µM)	> 100	12.5 (≈ 24.7 µM)	> 100	> 100	> 100	> 100	1.56 (≈ 3.08 µM)	> 100	> 100	–
CC(=O)OCC1=C(C(=O)O)N2C(=O)C(NC(=O)C(=C(Cl)Cl)c3ccco3)[C@H]2SC1 (stereo partly shown) [Compound 33, 7-[2-dichloromethylene-2-(2-furyl)acetamido]-3-acetoxymethyl-3-cephem-4-carboxylic acid]	12.5 (≈ 27.1 µM)	1.56 (≈ 3.38 µM)	25 (≈ 54.2 µM)	0.39 (≈ 0.845 µM)	–	6.25 (≈ 13.5 µM)	0.1 (≈ 0.217 µM)	100 (≈ 217 µM)	25 (≈ 54.2 µM)	100 (≈ 217 µM)	> 100	100 (≈ 217 µM)	50 (≈ 108 µM)	6.25 (≈ 13.5 µM)	50 (≈ 108 µM)	100 (≈ 217 µM)	–
